Test results: ChEMBL document CHEMBL1158462, “Recent advances in the development of polyamine analogues as antitumor agents” (J Med Chem, 2009)
One block for each molecule: values may come before it.

Tests used:
L1210 = assay: Antitumor activity against mouse L1210 cells; assay type: functional, cell-based
DU-145 = assay: Antitumor activity against human DU145 cells; assay type: functional, cell-based
PC-3 = assay: cells; conditions: Homo sapiens
Description: Antitumor activity against human PC3 cells

[1] = Antitumor activity against human U251MG cells; assay type: functional, cell-based; conditions: U-251
A549 [2] = assay: Antitumor activity against human A549 cells; assay type: functional, cell-based
HT-29 = assay: Antitumor activity against human HT-29 cells; assay type: functional, cell-based
MCF7 = assay: cells; assay type: functional, cell-based; conditions: Homo sapiens
Description: Antitumor activity against human MCF7 cells

NCI-H157 = assay: Antitumor activity against human NCI-H157 cells by MTT assay; assay type: functional, cell-based
Malme-3M = assay: Antitumor activity against human MALME-3M cells; assay type: functional, cell-based
[3] = target: Histone deacetylase (Homo sapiens) (UniProt Q13547+O15379+Q9UBN7+Q92769+Q9UQL6+Q8WUI4+Q9BY41+Q96DB2+P56524+Q9UKV0+Q969S8); conditions: HeLa, at 5 µM
Description: Inhibition of HDAC from human HeLa cells assessed as of histone H3 acetylation at 5 uM

MCF-10A = assay: cells; assay type: functional, cell-based; conditions: Homo sapiens
Description: Antitumor activity against human MCF10A cells

cells = conditions: Mus musculus, ML1
Description: Antitumor activity against mouse ML1 cells

Enterocytozoon bieneusi = assay: Antimicrobial activity against Enterocytozoon bieneusi; assay type: functional, organism-based
DuPro = assay: Antitumor activity against human DuPro cells; assay type: functional, cell-based
MDA-MB-435 = assay: Antitumor activity against human MDA-MB-435 cells; assay type: functional, cell-based
LNCaP = assay: Antitumor activity against human LNCAP cells; assay type: functional, cell-based
A549 [4] = assay: Antitumor activity against human A549 cells xenografted nu/nu Fox Chase mouse assessed as reduction in tumor growth at 75 mg/kg; assay type: functional; set-up: scale not given: the % may be the effect or the level left
NCI-H69 = assay: Antitumor activity against human H69 cells; assay type: functional, cell-based
A549 [5] = assay: Antitumor activity against human A549 cells xenografted nu/nu Fox Chase mouse assessed as reduction in tumor growth at 125 mg/kg; assay type: functional; set-up: scale not given: the % may be the effect or the level left
[6] = Antitumor activity against human H82 cells; assay type: functional, cell-based; conditions: NCI-H82
HeLa = assay: Antiproliferative activity against human HeLa cells; assay type: functional, cell-based
[7] = Antitumor activity against human Hs 578T cells; assay type: functional, cell-based
ZR-75-1 = assay: Antitumor activity against human ZR-75-1 cells; assay type: functional, cell-based
MDA-MB-468 = assay: Antitumor activity against human MDA-MB-468 cells; assay type: functional, cell-based
T47D = assay: Antitumor activity against human T47D cells; assay type: functional, cell-based
RKO [8] = assay: Induction of H3K4me2 expression in human RKO cells at 1 uM; assay type: functional
RKO [9] = assay: Induction of SFRP5 expression in human RKO cells at 1 uM; assay type: functional
RKO [10] = assay: Induction of SFRP4 expression in human RKO cells at 1 uM; assay type: functional
[11] = target: Lysine-specific histone demethylase 1A (Homo sapiens) (UniProt O60341); conditions: 1 uM
Description: Inhibition of LSD1 at 1 uM

IC50 (L1210): 600 nM
Structure (SMILES): CCNCC[C@@H](O)CNCCCCNC[C@H](O)CCNCC

IC50 (DU-145): 250 nM
IC50 (PC-3): 250 nM
IC50 [1]: 250 nM
IC50 (A549 [2]): 250 nM
IC50 (HT-29): 250 nM
IC50 (MCF7): 9250 nM
Structure (SMILES): CCNCCCNC/C=C\CNCCCNCC

IC50 (NCI-H157): 4200 nM
Structure (SMILES): CC(C)c1ccc(CNCCCCNCCCNCc2ccc(C(C)C)cc2)cc1

IC50 (L1210): 200 nM
IC50 (Malme-3M): 200 nM
Structure (SMILES): CCNCCCNCCCNCCCNCC [BIS(ETHYL)NORSPERMINE]

inhibition [3]: 42.9%
IC50 (MCF7): > 30000 nM
Structure (SMILES): Nc1ccccc1NC(=O)c1ccc(CNC(=O)CCCCCCCCC(=O)NCCCNCCCCNCCC(c2ccccc2)c2ccccc2)cc1
IC50 (MCF-10A): > 30000 nM

IC50 (cells): 750 nM
Structure (SMILES): Nc1ccccc1NC(=O)c1ccc(CNC(=O)OCc2cccnc2)cc1 [ENTINOSTAT]

inhibition [3]: 48.4%
IC50 (MCF7): > 30000 nM
Structure (SMILES): Nc1ccccc1NC(=O)c1ccc(CNC(=O)CCCCC(=O)NCCCNCCCCNCCC(c2ccccc2)c2ccccc2)cc1
IC50 (MCF-10A): > 30000 nM

IC50 (NCI-H157): 4100 nM
Structure (SMILES): CC(C)c1ccc(CNCCCNCCCNCCCNCc2ccc(C(C)C)cc2)cc1

IC50 (DU-145): 130 nM
IC50 (Enterocytozoon bieneusi): 130 nM
IC50 (PC-3): 130 nM
IC50 (DuPro): 130 nM
IC50 (MDA-MB-435): 130 nM
IC50 (LNCaP): 130 nM
Structure (SMILES): CCNCCCCNCCCCNCCCCNC/C=C/CNCCCCNCCCCNCCCCNCC

IC50 (NCI-H157): 4100 nM
Structure (SMILES): c1ccc(-c2ccccc2CNCCCNCCCCNCCCNCc2ccccc2-c2ccccc2)cc1

IC50 (DU-145): 60 nM
IC50 (DuPro): 60 nM
Structure (SMILES): CCNC[C@H]1C[C@@H]1CNCCCCNC[C@H]1C[C@@H]1CNCC

IC50 (DU-145): ≥ 300 nM
IC50 (PC-3): ≥ 300 nM
IC50 [1]: ≥ 300 nM
IC50 (A549 [2]): ≥ 300 nM
IC50 (HT-29): ≥ 300 nM
IC50 (MCF7): ≥ 300 nM
Structure (SMILES): CCNCCCNCC1CC1CNCCCNCC (stereo not drawn)

IC50 (NCI-H69): 700 nM
IC50 (NCI-H157): 2200 nM
IC50 (A549 [2]): 700 nM
IC50 [6]: 700 nM
Structure (SMILES): CCNCCCNCCCNCCCNC[C@H](C)CO
Activity (A549 [4]): 65%
Activity (A549 [5]): 65%

IC50 (DU-145): 250 nM
IC50 (PC-3): 250 nM
IC50 [1]: 250 nM
IC50 (A549 [2]): 250 nM
IC50 (HT-29): 250 nM
IC50 (MCF7): > 30000 nM
Structure (SMILES): CCNCCCCNC[C@@H]1C[C@H]1NCCCCNCC

IC50 (NCI-H157): 4200 nM
Structure (SMILES): CC(C)(C)c1ccc(CNCCCNCCCNCCCNCc2ccc(C(C)(C)C)cc2)cc1

inhibition [3]: 30.2%
IC50 (MCF7): > 30000 nM
Structure (SMILES): CC(=O)C(=O)NCCCCCC(=O)NCCCNCCCCNCCC(c1ccccc1)c1ccccc1
IC50 (MCF-10A): > 30000 nM

IC50 (HeLa): 5000 nM
Structure (SMILES): NCCCNCCCCCCCCNCCCN

IC50 (DU-145): > 30000 nM
IC50 (PC-3): > 30000 nM
IC50 [1]: > 30000 nM
IC50 (A549 [2]): > 30000 nM
IC50 (HT-29): > 30000 nM
IC50 (MCF7): > 30000 nM
Structure (SMILES): CCNCCCNCc1ccccc1CNCCCNCC

inhibition [3]: 60.1%
IC50 (MCF7): > 30000 nM
Structure (SMILES): Nc1ccccc1NC(=O)c1ccc(CNC(=O)CCCCC(=O)NCCCNCCCCNCc2ccccc2-c2ccccc2)cc1
IC50 (MCF-10A): > 30000 nM

IC50 (NCI-H157): 4000 nM
Structure (SMILES): COc1cc(C(C)(C)C)cc(C(C)(C)C)c1CNCCCNCCCNCCCNCc1c(OC)cc(C(C)(C)C)cc1C(C)(C)C

IC50 (DU-145): 120 nM
IC50 (DuPro): 120 nM
Structure (SMILES): CCNCCCCNC[C@H]1C[C@@H]1CNCCCCNC[C@H]1C[C@@H]1CNCCCCNCC

IC50 (Malme-3M): 3000 nM
Structure (SMILES): CC(C)NCCCNCCCCNCCCNC(C)C

IC50 [7]: 200 nM
IC50 (ZR-75-1): 200 nM
IC50 (NCI-H157): 200 nM
IC50 (MDA-MB-468): 200 nM
IC50 (MCF7): 200 nM
IC50 (T47D): 200 nM
Structure (SMILES): CCNCCCNCCCNCCCNCC1CC1

IC50 (DU-145): ≥ 100 nM
IC50 (PC-3): ≥ 100 nM
IC50 [1]: ≥ 100 nM
IC50 (A549 [2]): ≥ 100 nM
IC50 (HT-29): ≥ 100 nM
IC50 (MCF7): ≥ 100 nM
Structure (SMILES): CCNCCCNCC1CCC1CNCCCNCC (stereo not drawn)

IC50 (NCI-H157): 700 nM
IC50 [6]: 700 nM
Structure (SMILES): CCNCCCNCCCNCCCNCC1CCCCCC1

inhibition [11]: 90.9%
Structure (SMILES): N=C(NCCCNCCCCCCCNCCCNC(=N)NC(=N)NCCC(c1ccccc1)c1ccccc1)NC(=N)NCCC(c1ccccc1)c1ccccc1
Activity (RKO [8]): 20%
Activity (RKO [9]): 20%
Activity (RKO [10]): 20%

IC50 (L1210): 500 nM
Structure (SMILES): CCNCCCNCCCCNCCCNCC [BIS(ETHYL)SPERMINE]

IC50 (NCI-H157): 700 nM
Structure (SMILES): C=C(C)CNCCCNCCCNCCCNCC

IC50 (MCF7): > 30000 nM
Structure (SMILES): Nc1ccccc1NC(=O)c1ccc(CNC(=O)CCCCCCC(=O)NCCCNCCCCNCCC(c2ccccc2)c2ccccc2)cc1
IC50 (MCF-10A): > 30000 nM

IC50 (NCI-H157): 4200 nM
Structure (SMILES): c1ccc(CCc2ccccc2CNCCCCNCCCNCc2ccccc2CCc2ccccc2)cc1

IC50 (NCI-H157): 600 nM
Structure (SMILES): CCNCCCNCCCNCCCNCCC(C)C

IC50 (cells): 250 nM
Structure (SMILES): CC(/C=C/C(=O)NO)=C\[C@@H](C)C(=O)c1ccc(N(C)C)cc1 [TRICHOSTATIN]
